# Data: patent US20250230154A1, “COMPOUND HAVING SHP2 PROTEIN DEGRADING ACTIVITY, AND MEDICAL USES THEREOF” (UBIX THERAPEUTICS, INC., priority 2021, published 2025)
# Molecular target: T1, SHP2 protein (Homo sapiens, UniProt Q06124)
# T1 sequence (Q06124 1-593): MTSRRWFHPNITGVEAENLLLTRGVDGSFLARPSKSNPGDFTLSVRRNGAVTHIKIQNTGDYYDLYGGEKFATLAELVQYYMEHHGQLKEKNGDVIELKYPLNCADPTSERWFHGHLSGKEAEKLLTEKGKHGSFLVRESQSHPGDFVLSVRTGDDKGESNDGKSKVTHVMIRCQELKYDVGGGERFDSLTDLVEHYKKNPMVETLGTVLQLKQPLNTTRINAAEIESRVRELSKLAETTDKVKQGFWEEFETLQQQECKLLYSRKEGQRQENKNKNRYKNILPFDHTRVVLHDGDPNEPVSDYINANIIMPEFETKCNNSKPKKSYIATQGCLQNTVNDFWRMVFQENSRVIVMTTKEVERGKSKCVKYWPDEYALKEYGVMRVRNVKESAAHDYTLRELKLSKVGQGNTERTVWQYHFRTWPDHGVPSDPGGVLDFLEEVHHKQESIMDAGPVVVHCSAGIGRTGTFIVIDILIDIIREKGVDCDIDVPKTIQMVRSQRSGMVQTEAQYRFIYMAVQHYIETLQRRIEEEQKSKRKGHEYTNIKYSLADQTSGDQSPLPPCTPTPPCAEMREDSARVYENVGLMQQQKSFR
# Assay: Measurement of SHP2 protein degradation in MV-4-11 cells (western blotting)
# Type: cell-based
# Set-up: endogenous in cells; host or cells: MV-4-11
# Settings: for SHP2 degradation (%) 10 nM / SHP2 degradation (%) 100 nM / SHP2 degradation (%) 1000 nM: MV-4-11 cells, 24 hours
# Outline: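 SHP2 protein levels were assessed by western blotting in MV-4-11 cells after a 24 hour compound treatment. Lysates were sonicated, centrifuged, normalized by BCA assay at 562 nm, run on Bis-tris 4-12% gels, transferred to NC membrane, probed with anti-SHPTP2 (70 kDa) and anti-GAPDH (37 kDa) antibodies, and detected on LI-COR Odyssey.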
Compound,SHP2 degradation (%) 10 nM,SHP2 degradation (%) 100 nM,SHP2 degradation (%) 1000 nM,SHP2 protein degradation activity (in words) (comment on Table 4)
"CC(=O)N[C@H](C(=O)N1C[C@H](O)C[C@H]1C(=O)NCc1ccc(-c2scnc2C)cc1OCCCN1CCN(C(=O)CC(=O)Nc2cccc(Sc3cnc(N4CCC(C)(CN)CC4)cn3)c2Cl)CC1)C(C)(C)C [Example 61, (2S,4R)-1-((S)-2-acetamido-3,3-dimethylbutanoyl)-N-(2-(3-(4-(3-((3-((5-(4-(aminomethyl)-4-methylpiperidin-1-yl)pyrazin-2-yl)thio)-2-chlorophenyl)amino)-3-oxopropanoyl)piperazin-1-yl)propoxy)-4-(4-methylthiazol-5-yl)benzyl)-4-hydroxypyrrolidine-2-carboxamide]",87.3%,99.4%,,
"Cc1ncsc1-c1ccc(CNC(=O)[C@@H]2C[C@@H](O)CN2C(=O)[C@@H](NC(=O)C2(F)CC2)C(C)(C)C)c(OCCCC2CCN(C(=O)C(=O)Nc3cccc(Sc4cnc(N5CCC(C)(CN)CC5)cn4)c3Cl)CC2)c1 [Example 28, (2S,4R)—N-(2-(3-(1-(2-((3-((5-(4-(aminomethyl)-4-methylpiperidin-1-yl)pyrazin-2-yl)thio)-2-chlorophenyl)amino)-2-oxoacetyl)piperidin-4-yl)propoxy)-4-(4-methylthiazol-5-yl)benzyl)-1-((S)-2-(1-fluorocyclopropane-1-carboxamido)-3,3-dimethylbutanoyl)-4-hydroxypyrrolidine-2-carboxamide]",19%,76.5%,94%,
"Cc1ncsc1-c1ccc(CNC(=O)[C@@H]2C[C@@H](O)CN2C(=O)[C@@H](NC(=O)C2(F)CC2)C(C)(C)C)c(OCCCN2CCC(CC(=O)Nc3cccc(Sc4ncc(N5CCC(C)(N)CC5)nc4N)c3Cl)CC2)c1 [Example 9, (2S,4R)—N-(2-(3-(4-(2-((3-((3-amino-5-(4-amino-4-methylpiperidin-1-yl)pyrazin-2-yl)thio)-2-chlorophenyl)amino)-2-oxoethyl)piperidin-1-yl)propoxy)-4-(4-methylthiazol-5-yl)benzyl)-1-((S)-2-(1-fluorocyclopropane-1-carboxamido)-3,3-dimethylbutanoyl)-4-hydroxypyrrolidine-2-carboxamide]",39.6%,93.3%,95.6%,
"Cc1ncsc1-c1ccc(CNC(=O)[C@@H]2C[C@@H](O)CN2C(=O)[C@@H](NC(=O)C2(F)CC2)C(C)(C)C)c(OCCC2CCN(C(=O)CC(=O)Nc3cccc(Sc4cnc(N5CCC(C)(CN)CC5)cn4)c3Cl)CC2)c1 [Example 36, (2S,4R)—N-(2-(2-(1-(3-((3-((5-(4-(aminomethyl)-4-methylpiperidin-1-yl)pyrazin-2-yl)thio)-2-chlorophenyl)amino)-3-oxopropanoyl)piperidin-4-yl)ethoxy)-4-(4-methylthiazol-5-yl)benzyl)-1-((S)-2-(1-fluorocyclopropane-1-carboxamido)-3,3-dimethylbutanoyl)-4-hydroxypyrrolidine-2-carboxamide]",83.0%,93.5%,93.5%,
"Cc1ncsc1-c1ccc(CNC(=O)[C@@H]2C[C@@H](O)CN2C(=O)[C@@H](NC(=O)C2(F)CC2)C(C)(C)C)c(OCCN2CCN(CC(=O)Nc3cccc(Sc4cnc(N5CCC(C)(CN)CC5)cn4)c3Cl)C(=O)C2)c1 [Example 76, (2S,4R)—N-(2-(2-(4-(2-((3-((5-(4-(aminomethyl)-4-methylpiperidin-1-yl)pyrazin-2-yl)thio)-2-chlorophenyl)amino)-2-oxoethyl)-3-oxopiperazin-1-yl)ethoxy)-4-(4-methylthiazol-5-yl)benzyl)-1-((S)-2-(1-fluorocyclopropane-1-carboxamido)-3,3-dimethylbutanoyl)-4-hydroxypyrrolidine-2-carboxamide]",94.2%,99.5%,,
"Cc1ncsc1-c1ccc(CNC(=O)[C@@H]2C[C@@H](O)CN2C(=O)[C@@H](NC(=O)C2(F)CC2)C(C)(C)C)c(OCCC2CCN(C(=O)CC(=O)Nc3cccc(Sc4ncc(N5CCC(C)(N)CC5)nc4N)c3Cl)CC2)c1 [Example 35, (2S,4R)—N-(2-(2-(1-(3-((3-((3-amino-5-(4-amino-4-methylpiperidin-1-yl)pyrazin-2-yl)thio)-2-chlorophenyl)amino)-3-oxopropanoyl)piperidin-4-yl)ethoxy)-4-(4-methylthiazol-5-yl)benzyl)-1-((S)-2-(1-fluorocyclopropane-1-carboxamido)-3,3-dimethylbutanoyl)-4-hydroxypyrrolidine-2-carboxamide]",74%,93%,93%,
"Cc1ncsc1-c1ccc(CNC(=O)[C@@H]2C[C@@H](O)CN2C(=O)[C@@H](NC(=O)C2(F)CC2)C(C)(C)C)c(OCC2CCN(C(=O)C3(C(=O)Nc4cccc(Sc5cnc(N6CCC(C)(CN)CC6)cn5)c4Cl)CC3)CC2)c1 [Example 46, (2S,4R)—N-(2-((1-(1-((3-((5-(4-(aminomethyl)-4-methylpiperidin-1-yl)pyrazin-2-yl)thio)-2-chlorophenyl)carbamoyl)cyclopropane-1-carbonyl)piperidin-4-yl)methoxy)-4-(4-methylthiazol-5-yl)benzyl)-1-((S)-2-(1-fluorocyclopropane-1-carboxamido)-3,3-dimethylbutanoyl)-4-hydroxypyrrolidine-2-carboxamide]",0.1%,52.3%,,somewhat decreased
"Cc1ncsc1-c1ccc(CNC(=O)[C@@H]2C[C@@H](O)CN2C(=O)[C@@H](NC(=O)C2CC2)C(C)(C)C)c(OCCN2CCN(C(=O)CC(=O)Nc3cccc(Sc4cnc(N5CCC(C)(CN)CC5)cn4)c3Cl)CC2)c1 [Example 56, (2S,4R)—N-(2-(2-(4-(3-((3-((5-(4-(aminomethyl)-4-methylpiperidin-1-yl)pyrazin-2-yl)thio)-2-chlorophenyl)amino)-3-oxopropanoyl)piperazin-1-yl)ethoxy)-4-(4-methylthiazol-5-yl)benzyl)-1-((S)-2-(cyclopropanecarboxamido)-3,3-dimethylbutanoyl)-4-hydroxypyrrolidine-2-carboxamide]",91.4%,98.9%,,
"Cc1ncsc1-c1ccc(CNC(=O)[C@@H]2C[C@@H](O)CN2C(=O)[C@@H](NC(=O)C2(F)CC2)C(C)(C)C)c(OCCN2CCN(CC(=O)Nc3cccc(Sc4cnc(N5CCC(C)(CN)CC5)cn4)c3Cl)CC2)c1 [Example 72, (2S,4R)—N-(2-(2-(4-(2-((3-((5-(4-(aminomethyl)-4-methylpiperidin-1-yl)pyrazin-2-yl)thio)-2-chlorophenyl)amino)-2-oxoethyl)piperazin-1-yl)ethoxy)-4-(4-methylthiazol-5-yl)benzyl)-1-((S)-2-(1-fluorocyclopropane-1-carboxamido)-3,3-dimethylbutanoyl)-4-hydroxypyrrolidine-2-carboxamide]",5.1%,85.6%,,
